Experimental data: ChEMBL document CHEMBL4619777, “A New Class of Dengue and West Nile Virus Protease Inhibitors with Submicromolar Activity in Reporter Gene DENV-2 Protease and Viral Replication Assays” (J Med Chem, 2020)
Calls of active or inactive are those of the source.

Columns and labels:
dengue virus type 2 [1] = assay: Antiviral activity against DENV2 infected in human HuH7 cells assessed as reduction in virus titer at 12.5 uM measured after 48 hrs relative to control; assay type: functional; details: Huh-7, 48 h
Prothrombin = Prothrombin (Homo sapiens, UniProt P00734); assay: Inhibition of thrombin (unknown origin) at 25 uM using Boc-Val-Pro-Arg-AMC as substrate preincubated for 15 mins followed by substrate addition and measured for 15 mins by fluorimetric assay; details: 0.25 h
Genome polyprotein [2] = target: T1, Genome polyprotein (dengue virus type 2, UniProt P29990); assay: Inhibition of Dengue virus serotype 2 NS2B-NS3 protease expressed in Escherichia coli BL21 lambda (DE3) cells using Abz-Nle-Lys-Arg-Arg-Ser-3-(NO2)Tyr as substrate preincubated for 15 mins followed by substrate addition and measured for 15 mins by FRET assay
dengue virus type 2 [3] = assay: Antiviral activity against DENV2 infected in human HuH7 cells assessed as reduction in virus titer measured after 48 hrs; assay type: functional, organism-based; details: Huh-7, 48 h
[4] = target: Genome polyprotein (dengue virus type 2) (UniProt P29990); assay: Inhibition of Dengue virus serotype 2 NS2B-NS3 protease transfected in human HeLa cells at 12.5 uM measured after 24 hrs by Renilla-luciferase reporter gene assay relative to control; assay type: cell-based
Huh-7 = assay: Cytotoxicity against human HuH7 cells assessed as reduction in cell viability at 12 uM measured after 48 hrs by celltiter-blue assay; assay type: cell-based; details: huh-7, 48 h
[5] = target: Genome polyprotein (West Nile virus) (UniProt P06935); assay: Inhibition of West Nile virus NS2B-NS3 protease expressed in Escherichia coli BL21 lambda (DE3) cells at 50 uM using Abz-Gly-Leu-Lys-Arg-Gly-Gly-3-(NO2)Tyr as substrate preincubated for 15 mins followed by substrate addition measured for 15 mins by fluorimetric analysis relative to control
Sequence of Genome polyprotein (West Nile virus) (P06935 whole entry): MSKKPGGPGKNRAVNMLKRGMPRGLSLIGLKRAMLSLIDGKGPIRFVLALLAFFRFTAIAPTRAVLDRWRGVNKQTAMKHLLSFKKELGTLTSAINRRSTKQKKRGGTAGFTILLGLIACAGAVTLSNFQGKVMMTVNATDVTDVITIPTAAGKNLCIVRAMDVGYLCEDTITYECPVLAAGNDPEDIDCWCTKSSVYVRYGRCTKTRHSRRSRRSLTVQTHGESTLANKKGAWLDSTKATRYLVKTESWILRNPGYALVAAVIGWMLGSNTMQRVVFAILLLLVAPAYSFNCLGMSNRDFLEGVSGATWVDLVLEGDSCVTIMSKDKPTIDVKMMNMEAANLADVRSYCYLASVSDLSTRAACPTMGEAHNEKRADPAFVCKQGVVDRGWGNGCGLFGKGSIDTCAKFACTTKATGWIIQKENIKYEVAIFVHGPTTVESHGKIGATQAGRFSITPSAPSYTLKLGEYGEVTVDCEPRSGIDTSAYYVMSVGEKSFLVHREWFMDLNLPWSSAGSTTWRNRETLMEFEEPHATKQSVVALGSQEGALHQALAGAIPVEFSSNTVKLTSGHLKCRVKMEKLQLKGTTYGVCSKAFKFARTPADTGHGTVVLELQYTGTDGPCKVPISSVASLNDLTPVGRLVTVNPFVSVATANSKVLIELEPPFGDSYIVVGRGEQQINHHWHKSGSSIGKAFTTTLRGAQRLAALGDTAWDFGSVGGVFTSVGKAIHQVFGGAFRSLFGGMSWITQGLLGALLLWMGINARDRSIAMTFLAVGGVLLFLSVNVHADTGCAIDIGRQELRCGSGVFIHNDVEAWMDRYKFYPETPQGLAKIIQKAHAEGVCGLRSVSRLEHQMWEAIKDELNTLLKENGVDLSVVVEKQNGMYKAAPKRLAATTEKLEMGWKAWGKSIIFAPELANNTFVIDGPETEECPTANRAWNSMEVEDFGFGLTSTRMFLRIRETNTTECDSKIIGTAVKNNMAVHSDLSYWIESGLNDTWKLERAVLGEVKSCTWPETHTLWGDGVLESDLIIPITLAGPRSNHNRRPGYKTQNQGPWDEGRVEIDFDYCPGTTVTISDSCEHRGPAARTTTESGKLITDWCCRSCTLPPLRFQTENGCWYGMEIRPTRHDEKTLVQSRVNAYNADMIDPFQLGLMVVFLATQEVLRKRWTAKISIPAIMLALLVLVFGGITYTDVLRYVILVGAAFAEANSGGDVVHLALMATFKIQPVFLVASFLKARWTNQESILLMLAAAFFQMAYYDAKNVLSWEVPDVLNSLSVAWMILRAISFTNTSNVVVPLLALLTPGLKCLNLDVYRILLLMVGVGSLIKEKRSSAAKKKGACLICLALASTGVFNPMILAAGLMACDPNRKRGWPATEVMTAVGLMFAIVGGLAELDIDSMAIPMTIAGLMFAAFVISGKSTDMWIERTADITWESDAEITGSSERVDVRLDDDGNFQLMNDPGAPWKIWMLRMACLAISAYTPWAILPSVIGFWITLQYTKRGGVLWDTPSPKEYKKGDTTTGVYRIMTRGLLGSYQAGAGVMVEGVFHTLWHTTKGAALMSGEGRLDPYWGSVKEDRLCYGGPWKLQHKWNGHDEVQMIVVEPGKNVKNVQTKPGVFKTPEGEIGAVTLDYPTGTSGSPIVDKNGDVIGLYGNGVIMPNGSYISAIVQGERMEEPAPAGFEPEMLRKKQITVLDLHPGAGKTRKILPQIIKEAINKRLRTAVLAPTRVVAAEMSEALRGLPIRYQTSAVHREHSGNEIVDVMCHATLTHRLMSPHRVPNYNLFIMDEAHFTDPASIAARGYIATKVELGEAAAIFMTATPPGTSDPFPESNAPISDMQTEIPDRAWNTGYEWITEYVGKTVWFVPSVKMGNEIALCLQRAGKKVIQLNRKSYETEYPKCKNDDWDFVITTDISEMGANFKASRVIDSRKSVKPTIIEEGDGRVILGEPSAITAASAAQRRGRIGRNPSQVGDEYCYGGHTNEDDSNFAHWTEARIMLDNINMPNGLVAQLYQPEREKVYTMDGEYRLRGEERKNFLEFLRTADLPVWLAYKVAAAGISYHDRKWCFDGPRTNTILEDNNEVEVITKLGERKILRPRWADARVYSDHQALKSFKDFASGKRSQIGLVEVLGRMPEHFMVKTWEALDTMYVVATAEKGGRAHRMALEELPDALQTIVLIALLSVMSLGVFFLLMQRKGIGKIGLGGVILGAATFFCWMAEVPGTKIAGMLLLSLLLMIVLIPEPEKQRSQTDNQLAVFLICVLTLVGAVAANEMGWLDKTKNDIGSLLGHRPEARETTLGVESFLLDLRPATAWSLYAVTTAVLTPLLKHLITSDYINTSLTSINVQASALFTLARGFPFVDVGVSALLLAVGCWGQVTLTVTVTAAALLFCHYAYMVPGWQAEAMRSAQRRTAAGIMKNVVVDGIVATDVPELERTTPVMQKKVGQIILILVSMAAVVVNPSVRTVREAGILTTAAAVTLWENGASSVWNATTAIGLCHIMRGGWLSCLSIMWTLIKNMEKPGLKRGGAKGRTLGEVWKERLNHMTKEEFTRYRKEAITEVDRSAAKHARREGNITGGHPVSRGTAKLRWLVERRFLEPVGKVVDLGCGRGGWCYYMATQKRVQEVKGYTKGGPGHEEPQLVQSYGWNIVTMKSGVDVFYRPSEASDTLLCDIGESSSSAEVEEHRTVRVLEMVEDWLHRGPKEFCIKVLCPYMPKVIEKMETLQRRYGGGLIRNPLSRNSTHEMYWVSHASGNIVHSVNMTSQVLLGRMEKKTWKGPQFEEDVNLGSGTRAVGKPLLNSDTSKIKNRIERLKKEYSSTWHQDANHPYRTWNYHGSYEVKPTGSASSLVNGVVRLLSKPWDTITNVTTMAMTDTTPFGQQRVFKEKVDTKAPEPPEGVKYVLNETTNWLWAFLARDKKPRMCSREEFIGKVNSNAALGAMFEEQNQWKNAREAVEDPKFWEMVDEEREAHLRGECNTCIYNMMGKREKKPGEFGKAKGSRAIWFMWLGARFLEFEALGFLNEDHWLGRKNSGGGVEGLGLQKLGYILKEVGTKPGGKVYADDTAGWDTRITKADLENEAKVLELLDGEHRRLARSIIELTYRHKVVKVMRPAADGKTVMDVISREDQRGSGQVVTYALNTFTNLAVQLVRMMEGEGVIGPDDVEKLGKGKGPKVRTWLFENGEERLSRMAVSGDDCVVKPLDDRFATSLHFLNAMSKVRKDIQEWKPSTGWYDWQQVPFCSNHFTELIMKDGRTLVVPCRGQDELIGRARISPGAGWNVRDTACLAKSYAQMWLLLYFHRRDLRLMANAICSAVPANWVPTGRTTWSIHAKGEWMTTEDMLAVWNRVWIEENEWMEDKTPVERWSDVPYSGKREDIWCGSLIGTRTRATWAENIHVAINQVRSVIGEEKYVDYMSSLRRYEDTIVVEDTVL

[6] = Cytotoxicity against human HeLa cells assessed as reduction in cell viability measured after 24 hrs by celltiter-blue assay; assay type: cell-based
Genome polyprotein [7] = target: Genome polyprotein (West Nile virus, UniProt P06935); assay: Inhibition of West Nile virus NS2B-NS3 protease expressed in Escherichia coli BL21 lambda (DE3) cells using Abz-Gly-Leu-Lys-Arg-Gly-Gly-3-(NO2)Tyr as substrate preincubated for 15 mins followed by substrate addition measured for 15 mins by fluorimetric analysis
Sequence of Genome polyprotein (West Nile virus, UniProt P06935) (P06935 1371-1501 limits assumed): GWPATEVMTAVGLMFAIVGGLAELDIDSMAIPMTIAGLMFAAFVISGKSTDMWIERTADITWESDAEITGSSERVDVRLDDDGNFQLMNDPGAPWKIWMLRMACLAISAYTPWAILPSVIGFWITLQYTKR
Sequence of Genome polyprotein (West Nile virus, UniProt P06935) (P06935 1502-2120 limits assumed): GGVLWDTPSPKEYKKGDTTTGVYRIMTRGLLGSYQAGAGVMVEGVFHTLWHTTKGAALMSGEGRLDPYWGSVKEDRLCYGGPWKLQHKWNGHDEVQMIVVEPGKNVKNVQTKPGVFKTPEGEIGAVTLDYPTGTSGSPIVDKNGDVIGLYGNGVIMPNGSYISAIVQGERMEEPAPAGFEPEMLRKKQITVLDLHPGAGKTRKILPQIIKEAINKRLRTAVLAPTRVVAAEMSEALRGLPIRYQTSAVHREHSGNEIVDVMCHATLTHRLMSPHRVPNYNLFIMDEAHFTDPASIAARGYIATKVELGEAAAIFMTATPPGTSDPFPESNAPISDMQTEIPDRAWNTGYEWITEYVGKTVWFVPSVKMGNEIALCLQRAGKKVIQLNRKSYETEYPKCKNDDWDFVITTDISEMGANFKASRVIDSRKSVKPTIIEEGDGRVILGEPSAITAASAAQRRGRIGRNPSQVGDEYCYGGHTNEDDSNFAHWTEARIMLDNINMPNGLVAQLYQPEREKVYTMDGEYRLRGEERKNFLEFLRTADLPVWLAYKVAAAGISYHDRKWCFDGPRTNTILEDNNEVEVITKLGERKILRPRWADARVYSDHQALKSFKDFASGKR

Genome polyprotein [8] = target: T1, Genome polyprotein; assay: Inhibition of Dengue virus serotype 2 NS2B-NS3 protease transfected in human HeLa cells measured after 24 hrs by Renilla-luciferase reporter gene assay; assay type: cell-based
Trypsin [9] = target: T2, Trypsin (Homo sapiens, UniProt P07477+P07478+P35030); assay: Inhibition of trypsin (unknown origin) at 50 uM using Boc-Val-Pro-Arg-AMC as substrate preincubated for 15 mins followed by substrate addition and measured for 15 mins by fluorimetric assay relative to control; assay type: protein assay; details: for inhibition (INH): 0.25 h, 50 µM; for inhibition at 0.25 h, 50 µM: trypsin (unknown origin), probe Boc-Val-Pro-Arg-AMC
[10] = Permeability of the compound assessed as drug level in donor plate at 200 uM measured after 5 hrs at pH 7.4 by PAMPA; assay type: ADME; details: pH 7.4, 5 h
Trypsin [11] = target: T2, Trypsin; assay: Inhibition of trypsin (unknown origin) using Boc-Val-Pro-Arg-AMC as substrate preincubated for 15 mins followed by substrate addition and measured for 15 mins by fluorimetric assay; assay type: protein assay
[12] = target: Genome polyprotein (dengue virus type 2) (UniProt P29990); assay: Inhibition of Dengue virus serotype 2 NS2B-NS3 protease expressed in Escherichia coli BL21 lambda (DE3) cells at 50 uM using Abz-Nle-Lys-Arg-Arg-Ser-3-(NO2)Tyr as substrate preincubated for 15 mins followed by substrate addition and measured for 15 mins by FRET assay relative to control
[13] = Permeability of the compound assessed as mass retention at 200 uM measured after 5 hrs at pH 7.4 by PAMPA; assay type: ADME; details: pH 7.4, 5 h
[14] = Permeability of the compound assessed as drug level in acceptor plate at 200 uM measured after 5 hrs at pH 7.4 by PAMPA; assay type: ADME; details: pH 7.4, 5 h
[15] = Permeability of the compound at 200 uM measured after 5 hrs at pH 7.4 by PAMPA; assay type: ADME; details: read-out: permeability
dengue virus type 2 [16] = assay: Antiviral activity against DENV2 infected in human HuH7 cells assessed as reduction in virus titer at 10 uM measured after 48 hrs relative to control; assay type: functional; details: Huh-7, 48 h
[17] = target: Genome polyprotein (dengue virus type 2) (UniProt P29990); assay: Competitive inhibition of Dengue virus serotype 2 NS2B-NS3 protease expressed in Escherichia coli BL21 lambda (DE3) cells using varying levels of Abz-Nle-Lys-Arg-Arg-Ser-3-(NO2)Tyr as substrate by Cheng-Prusoff plot analysis
[18] = target: Genome polyprotein (West Nile virus) (UniProt P06935); assay: Competitive inhibition of West Nile virus NS2B-NS3 protease expressed in Escherichia coli BL21 lambda (DE3) cells using varying levels of Abz-Gly-Leu-Lys-Arg-Gly-Gly-3-(NO2)Tyr as substrate by Cheng-Prusoff plot analysis

Structure (SMILES) | inhibition at 12.5 µM (dengue virus type 2 [1]) | inhibition (INH) (Prothrombin) | IC50 (Genome polyprotein [2]) | inhibition [4] | Activity (Huh-7) | inhibition [5] | CC50 at 24 h [6] | IC50 (Genome polyprotein [7]) | EC50 (Genome polyprotein [8]) | inhibition (INH) (Trypsin [9]) | inhibition [12] | R% [13] | Drug uptake [14] | Drug uptake [10] | Papp at 5 h, 200 µM [15] | other results
N=C(N)NCCC[C@H](NC(=O)c1ccccc1)C(=O)N[C@@H](CCCCN)C(=O)N[C@@H](C(N)=O)c1ccc(OCc2ccccc2)cc1 | 52.3% | Not Active | 0.68 µM | 40.9% | Non-Toxic | 86.7% | > 100 µM | 3.9 µM | 16 µM | Not Active | – | – | – | – | – | EC50 (dengue virus type 2 [3]): 8.6 µM; Drug uptake ([10]; BLD = below limit of detection): Bld
CCCCCC(=O)N[C@H](C(=O)NCc1ccc(C(=N)N)cc1)c1ccc(OCc2ccccc2)cc1.O=C(O)C(F)(F)F | – | Not Active | – | 49.1% | – | 39.4% | > 50 µM | – | – | – | 20.6% | – | – | – | – | IC50 (Trypsin [11]): 45 µM; inhibition at 0.25 h, 50 µM (Trypsin [9]): > 50%
CCCCCCC(=O)N[C@H](C(=O)NCc1ccc(NC(=N)N)cc1)c1ccc(OCc2ccccc2)cc1.O=C(O)C(F)(F)F | 81% | Not Active | 6.8 µM | 71% | Non-Toxic | 101% | > 50 µM | 17 µM | 0.52 µM | Not Active | 97.2% | 15.7% | 1.9 µM | 167.3 µM | 0.4 ×10⁻⁶ cm/s | –
N=C(N)Nc1ccc(CNC(=O)[C@@H](NC(=O)c2cccc(Oc3ccccc3)c2)c2ccc(OCc3ccccc3)cc2)cc1.O=C(O)C(F)(F)F | – | Not Active | 4.9 µM | 67.5% | – | 99.8% | > 25 µM | 6.1 µM | 7.3 µM | Not Active | 101% | 15.2% | 1.1 µM | 168.9 µM | 0.2 ×10⁻⁶ cm/s | –
CCCCCCCC(=O)N[C@H](C(=O)NCc1ccc(NC(=N)N)cc1)c1ccc(OCc2ccccc2)cc1.O=C(O)C(F)(F)F | – | Not Active | 4.8 µM | 71.4% | Non-Toxic | 104% | > 50 µM | 11 µM | 0.83 µM | Not Active | 100% | 17.3% | 1.5 µM | 164.5 µM | 0.3 ×10⁻⁶ cm/s | EC50 (dengue virus type 2 [3]): 7.2 µM; inhibition at 10 µM (dengue virus type 2 [16]): 57.7%
N=C(N)Nc1ccc(CNC(=O)[C@@H](NC(=O)c2ccc(-c3ccccc3)cc2)c2ccc(OCc3ccccc3)cc2)cc1.O=C(O)C(F)(F)F | – | Not Active | 1.8 µM | 67% | – | 99.4% | > 50 µM | 7.4 µM | 7.6 µM | – | 101% | – | – | – | – | IC50 (Trypsin [11]): 31 µM; inhibition at 0.25 h, 50 µM (Trypsin [9]): > 50%
N=C(N)Nc1ccc(CNC(=O)[C@@H](NC(=O)c2ccc(OC3CCCCC3)cc2)c2ccc(OCc3ccccc3)cc2)cc1.O=C(O)C(F)(F)F | 72.6% | Not Active | 5.9 µM | 70.4% | Non-Toxic | 99.7% | > 12.5 µM | 8.3 µM | 2.2 µM | Not Active | 98.2% | 10.8% | 1.6 µM | 177.4 µM | 0.3 ×10⁻⁶ cm/s | –
N=C(N)Nc1ccc(CNC(=O)[C@@H](NC(=O)c2ccc(Oc3ccccc3)cc2)c2ccc(OCc3ccccc3)cc2)cc1.O=C(O)C(F)(F)F | 80.5% | Not Active | 4 µM | 68.5% | Non-Toxic | 101% | > 12.5 µM | 6.2 µM | 3 µM | Not Active | 99.5% | 22.4% | 1.2 µM | 154.5 µM | 0.3 ×10⁻⁶ cm/s | EC50 (dengue virus type 2 [3]): 9.3 µM
N=C(N)Nc1ccc(CNC(=O)[C@@H](NC(=O)Cc2ccc(-c3ccccc3)cc2)c2ccc(OCc3c(Cl)cccc3Cl)cc2)cc1.O=C(O)C(F)(F)F | – | Not Active | 0.54 µM | 31.7% | – | 101% | > 50 µM | 1.2 µM | 39 µM | Not Active | 101% | – | – | – | – | inhibition [17]: Active; Ki (Genome polyprotein [2]): 460 nM; Ki (Genome polyprotein [7]): 1000 nM; Drug uptake ([10]; BLD = below limit of detection): Bld; inhibition [18]: Active
CCCCCC(=O)N[C@@H](C(=O)NCc1ccc(NC(=N)N)cc1)c1ccc(OCc2ccccc2)cc1.O=C(O)C(F)(F)F | – | Not Active | – | 54.9% | – | 34.2% | > 50 µM | – | 9.9 µM | – | 49.9% | – | – | – | – | IC50 (Trypsin [11]): 44 µM; inhibition at 0.25 h, 50 µM (Trypsin [9]): > 50%
CCCCCC(=O)N[C@H](C(=O)NCc1ccc(CN)cc1)c1ccc(OCc2ccccc2)cc1.O=C(O)C(F)(F)F | – | Not Active | 4.9 µM | – | – | 84.8% | 4.8 µM | 8.2 µM | – | Not Active | 94.9% | – | – | – | – | inhibition [17]: Active; Ki (Genome polyprotein [2]): 3800 nM
